# Square brackets hold non-standard residues; d marks the D form. Peptide text beside a SMILES is read from it.
# Key:
# [1] = system: cancer cell lines classified IM, MSL, M; test: PRISM screen compound sensitivity correlated with IM, MSL and M subtype of cell lines (101 gene signature); format: cell-based; conditions: for IM Corr test: correlation of PRISM compound sensitivity with IM subtype correlation; for M Corr test: correlation of PRISM compound sensitivity with M subtype correlation; for MSL Corr test: correlation of PRISM compound sensitivity with MSL subtype correlation; for TNBCType train: 101 gene signature
# [2] = system: cancer cell lines, DetermaIO classes; test: Association of PRISM compound sensitivity with DetermaIO (DTIO) cell line classes; format: cell-based
# [3] = correlation of PRISM compound sensitivity with DTIO; test cell set
# [4] = correlation of PRISM compound sensitivity with DTIO; training cell set
# [5] = correlation of compound sensitivity with DetermaIO (DTIO), test set
# [6] = correlation of compound sensitivity with DetermaIO (DTIO), training set
# [7] = correlation of PRISM compound sensitivity with DTIO (DetermaIO); test cell set (188 cell lines)
# [8] = correlation of PRISM compound sensitivity with DTIO (DetermaIO); training cell set (371 cell lines)
# [9] = correlation of PRISM compound sensitivity with DTIO; test cell set (188 cell lines)
# [10] = correlation of PRISM compound sensitivity with DTIO; training cell set (371 cell lines)
# [11] = subtype (IM, MSL or M) with which compound sensitivity is negatively correlated, training cell set (371 cell lines)
# [12] = subtype (IM, MSL or M) with which PRISM compound sensitivity is negatively correlated, training cell set
# [13] = correlation of compound sensitivity with DTIO; test set
# [14] = correlation of compound sensitivity with DTIO; training set
# [15] = subtype (IM, MSL or M) assigned to the compound by negative correlation of PRISM sensitivity with subtype, training cell set (371 cell lines)
SMILES,IM Corr test ([1]; test cell set (188 cell lines)),M Corr test ([1]; test cell set (188 cell lines)),MSL Corr test ([1]; test cell set (188 cell lines)),"DTIO Corr test [2, 3]","DTIO Corr train [2, 4]",IM Corr test ([1]; test cell set),M Corr test ([1]; test cell set),MSL Corr test ([1]; test cell set),other results
Cc1ccc(NC(=O)c2cccc(C(C)(C)C#N)c2)cc1Nc1ccc2ncn(C)c(=O)c2c1 [AZ-628],0.3356,−0.2327,0.1133,0.3247,0.1908,–,–,–,"DTIO Corr test [2, 5]: 0.3247; DTIO Corr train [2, 6]: 0.1908; DTIO Corr test ([2]; correlation of compound sensitivity with DetermaIO (DTIO); test set): 0.3247; DTIO Corr train ([2]; correlation of compound sensitivity with DetermaIO (DTIO); training set): 0.1908"
C=CCNC(=O)c1cc([N+](=O)[O-])cc2c(=O)[nH]c(Nc3ccc(Cl)c(Cl)c3)nc12 [AZ-10417808],–,–,–,−0.05539,−0.1839,−0.06367,0.03341,0.2588,–
N[C@@H]1CCCN(c2c(/C=C3\SC(=O)NC3=O)cccc2-c2ccccc2)C1 [AZD1208],–,–,–,0.02868,0.03472,0.06359,−0.02916,0.004575,–
C[C@@H](Oc1cc(NS(=O)(=O)N2CCC2)nc(SCc2cccc(F)c2F)n1)[C@@H](O)CO [AZD5069],–,–,–,−0.00725,−0.151,−0.07882,0.1362,0.02875,–
Cc1ncc(-c2ccnc(Nc3ccc(S(C)(=O)=O)cc3)n2)n1C(C)C [AZD5438],−0.1498,0.0844,0.1271,–,–,–,–,–,"DTIO Corr test [2, 7]: −0.1301; DTIO Corr train [2, 8]: −0.08372"
Cc1nc(C)c(-c2ccc(C3CCC(CC(=O)O)CC3)cc2)nc1C(N)=O (stereo not shown) [AZD7687],–,–,–,−0.03167,−0.02143,−0.05809,0.08898,0.08286,–
CNC(=O)CN1CCC(Oc2cc3c(Nc4cccc(Cl)c4F)ncnc3cc2OC)CC1 [AZD8931],−0.09307,0.2208,0.4034,–,–,–,–,–,"DTIO Corr test [2, 9]: 0.04159; DTIO Corr train [2, 10]: −0.08735"
Cc1c(-c2ccnn2C)cc(C(=O)NCc2ccc(S(C)(=O)=O)cn2)c(=O)n1-c1cccc(C(F)(F)F)c1 [AZD9668],–,–,–,−0.00254,0.06934,0.06774,−0.1139,0.009005,–
O=C(c1ccc(Cl)o1)N1CC2CNCC2C1 (stereo not shown) [AZD 1446],−0.01023,−0.00226,−0.09838,−0.00648,−0.01778,–,–,–,"TNBCType train [1, 11]: MSL"
Cc1ccc(S(=O)(=O)/C=C/C#N)cc1 [BAY-11-7082],0.07793,−0.1474,0.0317,0.04014,−0.00647,–,–,–,–
Cc1oc2nc3c(c(NC(=O)CN4CCCC4=O)c2c1C)CCCC3 [BCI-540],–,–,–,0.01234,−0.02488,0.07689,−0.08152,−0.1815,"TNBCType train [1, 12]: MSL"
CC(C)CCN1c2nc(Nc3cc(F)c(O)c(F)c3)ncc2N(C)C(=O)C1C (stereo not shown) [BI-D1870],−0.01584,0.01001,0.02005,0.01854,−0.09163,–,–,–,–
C/C(=C\C(=O)Nc1ccccc1C(=O)O)c1ccc2ccccc2c1 [BIBR-1532],−0.1712,0.141,−0.1482,−0.226,−0.05255,–,–,–,"TNBCType train [1, 11]: MSL"
CN1C(=O)N(c2cc(Cl)cc(Cl)c2)C(=O)[C@]12CN(Cc1cc(C(=O)O)cs1)C[C@H]2c1ccc(C#N)cc1 [BMS-587101],−0.05699,0.1367,−0.03676,−0.08591,0.01986,–,–,–,"TNBCType train [1, 11]: MSL"
Cc1c(NC(=O)OC[C@@H]2COCCN2)cn2ncnc(Nc3ccc4c(cnn4Cc4cccc(F)c4)c3)c12 [BMS-599626],−0.1901,0.2776,0.4191,−0.02871,−0.07697,–,–,–,"DTIO Corr test [2, 5]: −0.02871; DTIO Corr train [2, 6]: −0.07697"
COc1cccc(Nc2ncnn3ccc(CN4CC[C@@H](N)[C@H](O)C4)c23)c1 [BMS-690514],−0.1648,0.2486,0.3466,–,–,–,–,–,"DTIO Corr test [2, 7]: 0.01346; DTIO Corr train [2, 8]: −0.1666; DTIO Corr test ([2]; correlation of compound sensitivity with DTIO, test set): 0.01346; DTIO Corr train ([2]; correlation of compound sensitivity with DTIO, training set): −0.1666; DTIO Corr test [2, 13]: 0.01346; DTIO Corr train [2, 14]: −0.1666"

SMILES,IM Corr test ([1]; test cell set (188 cell lines)),M Corr test ([1]; test cell set (188 cell lines)),MSL Corr test ([1]; test cell set (188 cell lines)),"DTIO Corr test [2, 3]","DTIO Corr train [2, 4]",IM Corr test ([1]; test cell set),M Corr test ([1]; test cell set),MSL Corr test ([1]; test cell set),other results
COc1cc(C(=O)c2c(C)oc3c(O)c(OC)ccc23)cc(OC)c1OC [BNC105],–,–,–,−0.1135,−0.1119,−0.07446,−0.08585,−0.09188,"TNBCType train [1, 12]: MSL"
O=C1/C(=C/c2ccccc2)C[C@@]2(O)[C@H]3Cc4ccc(O)c5c4[C@@]2(CCN3CC2CC2)[C@H]1O5 [BNTX],−0.1371,0.09323,0.1062,−0.1085,−0.1416,–,–,–,–
CC(C)C[C@@H]1NC(=O)[C@@H](C(C)C)NC(=O)[C@@H]2CCCN2C(=O)[C@@H](CC(=O)O)NC(=O)[C@@H](Cc2c[nH]c3ccccc23)NC1=O [BQ-123] (cyclo(L[dW][dD]P[dV])),0.0449,−0.1374,−0.1421,0.07641,0.04394,–,–,–,"TNBCType train [1, 11]: MSL"
O=C(Nc1cccc(Nc2ncc(Br)c(NCCc3cnc[nH]3)n2)c1)N1CCCC1 [BX-912],–,–,–,0.03523,0.04083,0.1542,−0.2367,−0.03732,–
Cc1ccc(-n2sc(=O)n(Cc3ccc(F)cc3)c2=O)cc1 [CCG-50014],0.03964,−0.1198,−0.2063,−0.03813,0.0404,–,–,–,–
Nc1nc(-c2ccc(Cl)c(Cl)c2)c(-c2ccncc2)s1 [CGH2466],−0.07415,0.03776,0.04331,–,–,–,–,–,"DTIO Corr test [2, 7]: −0.01803; DTIO Corr train [2, 8]: −0.09319"
CCCCCCCCCCC(C)(C)C(=O)Nc1c(OC)cc(OC)cc1OC [CI-976],0.06082,−0.082,−0.03363,–,–,–,–,–,"TNBCType train [1, 15]: MSL; DTIO Corr test [2, 7]: 0.03532; DTIO Corr train [2, 8]: 0.09198"
C=CC(=O)Nc1cccc(Nc2nc(Nc3ccc(Oc4ccnc(C(=O)NC)c4)cc3)ncc2F)c1 [CNX-774],–,–,–,0.1389,0.07802,0.09358,−0.09506,0.02463,–
O=C(O)C1CN(CCCP(=O)(O)O)CCN1 (stereo not shown) [CPP],−0.04467,−0.01154,−0.2411,–,–,–,–,–,"TNBCType train [1, 15]: MSL; DTIO Corr test [2, 7]: −0.04842; DTIO Corr train [2, 8]: −0.04563"
CCn1c(=O)[nH]c2cc(Cl)c(Cl)cc21 [DCEBIO],0.1207,−0.1198,−0.1352,–,–,–,–,–,"DTIO Corr test [2, 7]: 0.121; DTIO Corr train [2, 8]: 0.1577"
CC(=O)Nc1ccc(Cc2ccc(NC(C)=O)cc2)cc1 [FH1],–,–,–,−0.06073,−0.08253,−0.11,0.01237,−0.1426,–
NC(=O)c1cccc(-c2cc(Nc3ccc(OC(F)(F)F)cc3)ncn2)c1 [GNF-2],−0.03304,−0.07177,−0.05938,–,–,–,–,–,"DTIO Corr test [2, 9]: −0.02831; DTIO Corr train [2, 10]: −0.02935"
CCCCC#Cc1nc(NC)c2ncn([C@@H]3O[C@H](CO)[C@@H](O)[C@H]3O)c2n1 [HEMADO],–,–,–,−0.09381,−0.08651,−0.0662,0.05737,0.1849,–
O=C1[C@H](Cc2ccc(O)cc2)N2C(=O)CCN(C(=O)NCc3ccccc3)[C@H]2CN1Cc1cccc2ccccc12 [ICG-001],0.1415,−0.2223,0.01929,–,–,–,–,–,"DTIO Corr test [2, 9]: 0.1635; DTIO Corr train [2, 10]: 0.1783; DTIO Corr test [2, 13]: 0.1635; DTIO Corr train [2, 14]: 0.1783"
"O=C(O)CCC/C=C\C[C@@H]1CO[C@H](C(F)(F)F)O[C@@H]1c1ccccc1O [ICI-185,282]",–,–,–,−0.02205,−0.09302,−0.05673,0.07129,0.1418,–

# From patent publication US20250140406A1, “CLASSIFYING TUMORS AND PREDICTING RESPONSIVENESS” (Oncocyte Corporation, priority 2022, published 2025)
